Assay results reported in the NIST ThermoML archive (doi:10.1021/je800786k).

Settings: Liquid, Vibrating tube method

CCCCCCC(C)N (stereo not given) [1-methylheptylamine]
Settings | mass density [kg/m3]
293.15 K, 100 kPa | 772
293.15 K, 10000 kPa | 778.7
293.15 K, 20000 kPa | 784.8
293.15 K, 30000 kPa | 790.6
293.15 K, 40000 kPa | 796.1
293.15 K, 50000 kPa | 801.2
293.15 K, 60000 kPa | 806
293.15 K, 70000 kPa | 810.6
293.15 K, 80000 kPa | 815
293.15 K, 90000 kPa | 819.1
293.15 K, 100000 kPa | 823.2
293.15 K, 110000 kPa | 826.9
293.15 K, 120000 kPa | 830.6
293.15 K, 130000 kPa | 834.2
293.15 K, 140000 kPa | 837.6
303.15 K, 100 kPa | 764
303.15 K, 10000 kPa | 771.3
303.15 K, 20000 kPa | 777.8
303.15 K, 30000 kPa | 783.8
303.15 K, 40000 kPa | 789.2
303.15 K, 50000 kPa | 794.5
303.15 K, 60000 kPa | 799.5
303.15 K, 70000 kPa | 804.2
303.15 K, 80000 kPa | 808.7
303.15 K, 90000 kPa | 813
303.15 K, 100000 kPa | 817.1
303.15 K, 110000 kPa | 821
303.15 K, 120000 kPa | 824.8
303.15 K, 130000 kPa | 828.5
303.15 K, 140000 kPa | 832
313.15 K, 100 kPa | 755.8
313.15 K, 10000 kPa | 763.5
313.15 K, 20000 kPa | 770.4
313.15 K, 30000 kPa | 776.7
313.15 K, 40000 kPa | 782.5
313.15 K, 50000 kPa | 788.1
313.15 K, 60000 kPa | 793.2
313.15 K, 70000 kPa | 798.1
313.15 K, 80000 kPa | 802.7
313.15 K, 90000 kPa | 807.1
313.15 K, 100000 kPa | 811.4
313.15 K, 110000 kPa | 815.5
313.15 K, 120000 kPa | 819.4
313.15 K, 130000 kPa | 823.1
313.15 K, 140000 kPa | 826.7
323.15 K, 100 kPa | 748.1
323.15 K, 10000 kPa | 756
323.15 K, 20000 kPa | 763.2
323.15 K, 30000 kPa | 769.9
323.15 K, 40000 kPa | 776
323.15 K, 50000 kPa | 781.6
323.15 K, 60000 kPa | 787.1
323.15 K, 70000 kPa | 792.2
323.15 K, 80000 kPa | 797
323.15 K, 90000 kPa | 801.5
323.15 K, 100000 kPa | 805.9
323.15 K, 110000 kPa | 810.1
323.15 K, 120000 kPa | 814.1
323.15 K, 130000 kPa | 818
323.15 K, 140000 kPa | 821.6
333.15 K, 100 kPa | 739.6
333.15 K, 10000 kPa | 748.1
333.15 K, 20000 kPa | 755.5
333.15 K, 30000 kPa | 762.6
333.15 K, 40000 kPa | 769
333.15 K, 50000 kPa | 775
333.15 K, 60000 kPa | 780.6
333.15 K, 70000 kPa | 785.8
333.15 K, 80000 kPa | 790.9
333.15 K, 90000 kPa | 795.5
333.15 K, 100000 kPa | 800
333.15 K, 110000 kPa | 804.4
333.15 K, 120000 kPa | 808.5
333.15 K, 130000 kPa | 812.5
333.15 K, 140000 kPa | 816.3
343.15 K, 100 kPa | 731.5
343.15 K, 10000 kPa | 740.5
343.15 K, 20000 kPa | 748.6
343.15 K, 30000 kPa | 756
343.15 K, 40000 kPa | 762.7
343.15 K, 50000 kPa | 768.9
343.15 K, 60000 kPa | 774.7
343.15 K, 70000 kPa | 780.2
343.15 K, 80000 kPa | 785.3
343.15 K, 90000 kPa | 790.2
343.15 K, 100000 kPa | 794.9
343.15 K, 110000 kPa | 799.2
343.15 K, 120000 kPa | 803.4
343.15 K, 130000 kPa | 807.5
343.15 K, 140000 kPa | 811.4
353.15 K, 100 kPa | 723.2
353.15 K, 10000 kPa | 733
353.15 K, 20000 kPa | 741.6
353.15 K, 30000 kPa | 749.3
353.15 K, 40000 kPa | 756.2
353.15 K, 50000 kPa | 762.7
353.15 K, 60000 kPa | 768.7
353.15 K, 70000 kPa | 774.4
353.15 K, 80000 kPa | 779.7
353.15 K, 90000 kPa | 784.7
353.15 K, 100000 kPa | 789.5
353.15 K, 110000 kPa | 794.1
353.15 K, 120000 kPa | 798.4
353.15 K, 130000 kPa | 802.3
353.15 K, 140000 kPa | 806.3
363.15 K, 100 kPa | 714.7
363.15 K, 10000 kPa | 724.9
363.15 K, 20000 kPa | 734
363.15 K, 30000 kPa | 742
363.15 K, 40000 kPa | 749.3
363.15 K, 50000 kPa | 756.1
363.15 K, 60000 kPa | 762.4
363.15 K, 70000 kPa | 768.3
363.15 K, 80000 kPa | 773.8
363.15 K, 90000 kPa | 779
363.15 K, 100000 kPa | 783.9
363.15 K, 110000 kPa | 788.5
363.15 K, 120000 kPa | 793
363.15 K, 130000 kPa | 797.3
363.15 K, 140000 kPa | 801.4
373.15 K, 100 kPa | 706
373.15 K, 10000 kPa | 717.2
373.15 K, 20000 kPa | 726.6
373.15 K, 30000 kPa | 735.2
373.15 K, 40000 kPa | 742.9
373.15 K, 50000 kPa | 749.9
373.15 K, 60000 kPa | 756.8
373.15 K, 70000 kPa | 762.8
373.15 K, 80000 kPa | 768.5
373.15 K, 90000 kPa | 773.8
373.15 K, 100000 kPa | 778.9
373.15 K, 110000 kPa | 783.7
373.15 K, 120000 kPa | 788.3
373.15 K, 130000 kPa | 792.8
373.15 K, 140000 kPa | 796.8
383.15 K, 100 kPa | 697.6
383.15 K, 10000 kPa | 709.4
383.15 K, 20000 kPa | 719.5
383.15 K, 30000 kPa | 728.5
383.15 K, 40000 kPa | 736.4
383.15 K, 50000 kPa | 743.8
383.15 K, 60000 kPa | 750.6
383.15 K, 70000 kPa | 756.8
383.15 K, 80000 kPa | 762.7
383.15 K, 90000 kPa | 768.1
383.15 K, 100000 kPa | 773.3
383.15 K, 110000 kPa | 778.3
383.15 K, 120000 kPa | 783
383.15 K, 130000 kPa | 787.5
383.15 K, 140000 kPa | 791.8
393.15 K, 100 kPa | 689
393.15 K, 10000 kPa | 701.6
393.15 K, 20000 kPa | 712.3
393.15 K, 30000 kPa | 721.7
393.15 K, 40000 kPa | 730
393.15 K, 50000 kPa | 737.9
393.15 K, 60000 kPa | 744.9
393.15 K, 70000 kPa | 751.4
393.15 K, 80000 kPa | 757.5
393.15 K, 90000 kPa | 763.2
393.15 K, 100000 kPa | 768.6
393.15 K, 110000 kPa | 773.6
393.15 K, 120000 kPa | 778.4
393.15 K, 130000 kPa | 782.8
393.15 K, 140000 kPa | 787.2
403.15 K, 100 kPa | 680.1
403.15 K, 10000 kPa | 693.5
403.15 K, 20000 kPa | 705
403.15 K, 30000 kPa | 714.8
403.15 K, 40000 kPa | 723.5
403.15 K, 50000 kPa | 731.5
403.15 K, 60000 kPa | 738.7
403.15 K, 70000 kPa | 745.4
403.15 K, 80000 kPa | 751.6
403.15 K, 90000 kPa | 757.5
403.15 K, 100000 kPa | 763.1
403.15 K, 110000 kPa | 768.3
403.15 K, 120000 kPa | 773.2
403.15 K, 130000 kPa | 777.9
403.15 K, 140000 kPa | 782.4
